Results reported in PubChem BioAssay (NCI).
Where “and” joins values, the source holds several entries; their conditions need not be identical. Equal entries are not always repeated.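 Five concentrations, 48 hours, 96-well plates. Abbreviation: GI50, concentration required for 50% inhibition of growth. TGI denotes the concentration required for complete inhibition of growth.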

Key:
Assay in all cases: inhibition of tumour cell growth, NCI panel, 48 h
[1] = system: SK-MEL-28 melanoma
[2] = system: KM12 colon
[3] = system: A498 renal
[4] = system: SN12C renal
[5] = system: RXF 393 renal
[6] = system: MALME-3M melanoma
[7] = system: UACC-257 melanoma
[8] = system: OVCAR-4 ovarian
[9] = system: M14 melanoma

## CC[C@@]1(O)C(=O)OCc2c1cc1n(c2=O)Cc2cc3cc4c(cc3nc2-1)OCO4
[1]
  GI50: 0.0971 µM
[2]
  GI50: 0.0353 µM and < 0.0188 µM
  TGI: 0.369 µM
[3]
  GI50: 0.00137 µM
  TGI: 0.0685 µM and 0.114 µM
[4]
  TGI: < 0.0125 µM
[5]
  GI50: < 0.0267 µM
  TGI: 0.0831 µM
[6]
  GI50: < 0.0144 µM
[7]
  TGI: 0.345 µM and 0.259 µM

## CCOC(=O)/C(C1=NCCN1)=C(\O)c1ccccc1
[1]
  TGI: > 100 µM
[2]
  TGI: > 100 µM
[4]
  TGI: > 100 µM
[5]
  TGI: > 100 µM
[8]
  TGI: > 100 µM
[9]
  TGI: > 100 µM
[6]
  TGI: > 100 µM
[7]
  TGI: > 100 µM

## OC1(C23CC4CC(CC(C4)C2)C3)CSCC1(O)C12CC3CC(CC(C3)C1)C2 (stereo unspecified)
[1]
  TGI: > 100 µM
[2]
  TGI: > 100 µM
[4]
  TGI: > 100 µM
[8]
  TGI: > 100 µM
[9]
  TGI: > 100 µM
[6]
  TGI: > 100 µM
[7]
  TGI: > 100 µM

## CCCCCCCCCCCCCCCC(=O)OCC1OC(n2cc(F)c(=O)[nH]c2=O)C(N)C(O)C1O (stereo unspecified)
[1]
  TGI: 31.1 µM
[2]
  TGI: 33.3 µM
[3]
  TGI: 61.3 µM
[4]
  TGI: 32.4 µM
[8]
  TGI: 31.2 µM
[9]
  TGI: 32.8 µM
[6]
  TGI: 38.2 µM
[7]
  TGI: 40.7 µM

## O=C1NC(Nc2ccccc2)=NC(C(F)(F)F)(C(F)(F)F)N1
[1]
  TGI: > 100 µM
[2]
  TGI: > 100 µM
[4]
  TGI: > 100 µM
[8]
  TGI: > 100 µM
[9]
  TGI: 83.5 µM
[6]
  TGI: > 100 µM
[7]
  TGI: > 100 µM

## CCCCCCC[CH2][Sn]([CH2]CCCCCCC)([O]c1cccc2cccnc12)[O]c1cccc2cccnc12
[2]
  GI50: 1.91 µM
  TGI: 4.19 µM
[3]
  GI50: 2.62 µM
  TGI: 5.85 µM
[4]
  GI50: 1.96 µM
  TGI: 4.32 µM
[5]
  GI50: 2.06 µM
  TGI: 8.07 µM
[9]
  GI50: 1.33 µM
  TGI: 3.17 µM
[6]
  GI50: 1.44 µM
  TGI: 2.9 µM
[7]
  GI50: 1.56 µM
  TGI: 4.56 µM

## Cc1cn(C2CC3C(COCN3O)O2)c(=O)[nH]c1=O (stereo unspecified)
[1]
  TGI: > 100 µM
[2]
  TGI: > 100 µM
[4]
  TGI: > 100 µM
[5]
  TGI: > 100 µM
[8]
  TGI: > 100 µM
[9]
  TGI: > 100 µM
[7]
  TGI: > 100 µM

## COc1ccc2c(c1)C(=O)c1ccc(OC)cc1C2=S
[1]
  TGI: > 100 µM
[2]
  TGI: > 100 µM
[3]
  TGI: > 100 µM
[4]
  TGI: > 100 µM
[5]
  TGI: > 100 µM
[9]
  TGI: > 100 µM
[6]
  TGI: > 100 µM
[7]
  TGI: > 100 µM

## CC(=O)N1CC(C)(C)c2c(C)c(O)c(C)c(C)c21
[1]
  TGI: > 100 µM
[2]
  TGI: > 100 µM
[3]
  TGI: > 100 µM
[4]
  TGI: > 100 µM
[5]
  TGI: > 100 µM
[8]
  TGI: > 100 µM
[9]
  TGI: > 100 µM
[7]
  TGI: > 100 µM

## CC(=O)[CH-]C(=O)c1ccccc1.CC(=O)[CH-]C(=O)c1ccccc1.CC[O-].CC[O-].[Hf+4]
[1]
  GI50: > 100 µM
  TGI: > 100 µM
[2]
  GI50: > 100 µM
  TGI: > 100 µM
[3]
  GI50: > 100 µM
  TGI: > 100 µM
[4]
  GI50: > 100 µM
  TGI: > 100 µM
[5]
  GI50: > 100 µM
  TGI: > 100 µM
[8]
  GI50: > 100 µM
  TGI: > 100 µM
[9]
  GI50: > 100 µM
  TGI: > 100 µM
[6]
  GI50: > 100 µM
  TGI: > 100 µM

## Cc1nc(Nc2ccccc2)sc1C(=O)CC(=O)C(=O)Nc1c(C(C)C)cccc1C(C)C
[1]
  TGI: > 100 µM
[2]
  TGI: > 100 µM
[4]
  TGI: > 100 µM
[5]
  TGI: > 100 µM
[8]
  TGI: > 100 µM
[9]
  TGI: > 100 µM
[6]
  TGI: > 100 µM
[7]
  TGI: > 100 µM

## NNC(=O)C1CCC(=O)N1S(=O)(=O)c1ccccc1 (stereo unspecified)
[1]
  TGI: > 100 µM
[2]
  TGI: > 100 µM
[4]
  TGI: > 100 µM
[5]
  TGI: > 100 µM
[8]
  TGI: > 100 µM
[9]
  TGI: > 100 µM
[6]
  TGI: > 100 µM
[7]
  TGI: > 100 µM

## CN(C(=O)C12C3C4C1C1C2C3C41C(N)=O)C(C)(C)C (stereo unspecified)
[1]
  TGI: > 100 µM
[2]
  TGI: > 100 µM
[3]
  TGI: > 100 µM
[4]
  TGI: > 100 µM
[8]
  TGI: > 100 µM
[9]
  TGI: > 100 µM
[6]
  TGI: > 100 µM

## N/N=C(/C(=O)Nc1cccc(Cl)c1)C(C(=O)c1ccc(O)cc1O)C1OC(=O)c2ccccc21 (stereo unspecified)
[1]
  TGI: > 100 µM
[2]
  TGI: > 100 µM
[3]
  TGI: > 100 µM
[4]
  TGI: > 100 µM
[8]
  TGI: > 100 µM
[9]
  TGI: > 100 µM
[6]
  TGI: > 100 µM
[7]
  TGI: > 100 µM

## C=C/C=C/NC(=O)OCc1ccccc1
[1]
  TGI: > 100 µM
[2]
  TGI: > 100 µM
[4]
  TGI: > 100 µM
[5]
  TGI: > 100 µM
[8]
  TGI: > 100 µM
[9]
  TGI: > 100 µM
[7]
  TGI: > 100 µM

## CC1(C)C2CCC13C(=O)C1OC3(C2)C2C(=O)c3ccccc3C(=O)C12 (stereo unspecified)
[1]
  GI50: > 100 µM
  TGI: > 100 µM
[2]
  GI50: 82.9 µM
  TGI: > 100 µM
[4]
  GI50: > 100 µM
  TGI: > 100 µM
[5]
  GI50: > 100 µM
  TGI: > 100 µM
[9]
  GI50: > 100 µM
  TGI: > 100 µM
[6]
  GI50: 39.7 µM
  TGI: > 100 µM
[7]
  GI50: > 100 µM
  TGI: > 100 µM

## COc1cc2c[n+](C)c3c4cc(OC)c(OC(C)C)cc4ccc3c2cc1OC
[1]
  TGI: > 100 µM
[2]
  TGI: > 100 µM
[4]
  TGI: > 100 µM
[5]
  TGI: > 100 µM
[8]
  TGI: > 100 µM
[9]
  TGI: > 100 µM
[6]
  TGI: > 100 µM
[7]
  TGI: > 100 µM

## C=C1CC2OC(=O)C(=C)C2C(O)C2C(=C)CCC12 (stereo unspecified)
[1]
  TGI: 21 µM
[2]
  TGI: 22.6 µM
[3]
  TGI: 17.5 µM
[4]
  TGI: 18.1 µM
[5]
  TGI: 17.7 µM
[6]
  TGI: 45.1 µM
[7]
  TGI: 18.8 µM

## CCOC(C[C@H](O[Si](C)(C)C(C)(C)C)[C@H]1COC(=S)S1)OCC
[1]
  TGI: > 100 µM
[2]
  TGI: > 100 µM
[4]
  TGI: > 100 µM
[9]
  TGI: > 100 µM
[6]
  TGI: > 100 µM
[7]
  TGI: > 100 µM
